# In US11524966B1 (Valo Early Discovery, Inc., priority 2017, dated 2022):
# Read-outs that look alike come from different tables or passages of the source.
# Target: T1, USP28 (His-tagged USP28-FL-mammalian) (Homo sapiens, UniProt Q96RU2)
# T1 construct: Expression of USP28 (1-1077)-TEV-6*His (pTT5 vector); made in house; host or cells: Expi293f cells (pTT5 vector)
# T1 sequence (Q96RU2 1-1077): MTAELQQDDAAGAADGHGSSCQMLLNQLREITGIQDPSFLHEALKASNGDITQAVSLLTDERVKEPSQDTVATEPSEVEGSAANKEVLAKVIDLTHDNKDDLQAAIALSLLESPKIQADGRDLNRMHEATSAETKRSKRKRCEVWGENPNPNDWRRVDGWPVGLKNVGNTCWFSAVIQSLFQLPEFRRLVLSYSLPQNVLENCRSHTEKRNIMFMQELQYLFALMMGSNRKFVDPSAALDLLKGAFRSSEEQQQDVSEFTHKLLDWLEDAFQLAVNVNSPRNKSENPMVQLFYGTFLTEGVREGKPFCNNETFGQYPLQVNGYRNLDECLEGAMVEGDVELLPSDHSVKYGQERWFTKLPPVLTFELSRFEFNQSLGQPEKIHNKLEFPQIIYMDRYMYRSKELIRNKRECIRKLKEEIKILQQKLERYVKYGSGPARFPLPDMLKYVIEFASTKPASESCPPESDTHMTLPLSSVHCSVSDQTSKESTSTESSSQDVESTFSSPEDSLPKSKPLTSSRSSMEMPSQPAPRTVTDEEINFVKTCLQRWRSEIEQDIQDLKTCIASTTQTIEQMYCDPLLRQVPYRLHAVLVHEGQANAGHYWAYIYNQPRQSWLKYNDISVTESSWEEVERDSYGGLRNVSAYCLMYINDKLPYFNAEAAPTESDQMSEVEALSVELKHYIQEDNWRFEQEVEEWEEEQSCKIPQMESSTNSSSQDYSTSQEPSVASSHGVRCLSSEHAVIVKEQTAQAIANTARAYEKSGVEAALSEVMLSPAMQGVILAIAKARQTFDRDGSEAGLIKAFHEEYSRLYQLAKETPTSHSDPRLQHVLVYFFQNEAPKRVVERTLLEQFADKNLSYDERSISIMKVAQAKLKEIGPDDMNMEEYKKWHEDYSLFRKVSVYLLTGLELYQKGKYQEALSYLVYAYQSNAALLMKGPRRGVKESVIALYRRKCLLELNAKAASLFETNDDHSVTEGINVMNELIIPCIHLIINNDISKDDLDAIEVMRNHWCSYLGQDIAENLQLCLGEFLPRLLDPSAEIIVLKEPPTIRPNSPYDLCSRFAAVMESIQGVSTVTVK
# Assay: Ubiquitin-Rhodamine 110 Assay for USP28 Activity, Example A-1(a)
# Format: biochemical
# Conditions: Ubiquitin-Rhodamine 110 assay, read-out: USP28 A-1(a) IC50 range
# Outline: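 Full-length His-tagged human USP28 (1-1077, Expi293f-expressed), […], with 25 nM Ub-Rh110 (<<Km) in pH 8.0 Tris buffer with BME, BGG, Triton X-100. 10-point dilutions (25 μM-1.3 nM), 45 min at room temperature, citric acid stop, fluorescence 485/535 nm; IC50 by 4-parameter fit.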
structure (smiles),measurement,setting,value
"Cc1ccc2c(N)c(C(=O)N[C@H]3CCc4c(F)c(N5CC6CNCC(C5)O6)cc(F)c4C3)sc2n1 (single isomer, unassigned) [Example 22-3]",IC50,format Example A-1(a),200 to 2000 nM
"Cc1ccc2c(N)c(C(=O)N[C@@H]3CCc4c(F)c(N5CC6CNCC(C5)O6)cc(F)c4C3)sc2n1 (single isomer, unassigned) [Example 22-4]",IC50,format Example A-1(a),1 to 50 nM
"Cc1ccc2c(N)c(C(=O)N[C@@H]3CCc4c(F)c(N5CC6CCC(C5)N6)cc(F)c4C3)sc2n1 (single isomer, unassigned) [Example 22-6]",IC50,format Example A-1(a),200 to 2000 nM
"CO[C@H]1CN(c2ccc3c(n2)CC[C@H](NC(=O)c2sc4nc(C)cnc4c2N)C3)C[C@@H]1N (single isomer, unassigned) [Example 23-1]",IC50,format Example A-1(a),200 to 2000 nM
"CO[C@H]1CN(c2ccc3c(n2)CC[C@@H](NC(=O)c2sc4nc(C)cnc4c2N)C3)C[C@@H]1N (single isomer, unassigned) [Example 23-2]",IC50,format Example A-1(a),> 2000 nM
"Cc1ccc2c(N)c(C(=O)N[C@H]3COc4cc(C5(F)CCNCC5)ccc4C3)sc2n1 [Example 8-1, (R)-3-Amino-N-(7-(4-fluoropiperidin-4-yl)chroman-3-yl)-6-methylthieno[2,3-b]pyridine-2-carboxamide]",IC50,Example A-1(a),1 to 50 nM
"Cc1ccc2c(N)c(C(=O)N[C@H]3COc4cc(N5CCNCC5)cc(F)c4C3)sc2n1 [Example 10-1, (R)-3-amino-N-(5-fluoro-7-(piperazin-1-yl)chroman-3-yl)-6-methylthieno[2,3-b]pyridine-2-carboxamide]",IC50,Example A-1(a),1 to 50 nM
"CO[C@@H]1CN(c2cc(F)c3c(c2)OC[C@H](NC(=O)c2sc4nc(C)ccc4c2N)C3)C[C@H]1N [Example 10-2, 3-amino-N-((R)-7-((3R,4R)-3-amino-4-methoxypyrrolidin-1-yl)-5-fluorochroman-3-yl)-6-methylthieno[2,3-b]pyridine-2-carboxamide]",IC50,Example A-1(a),1 to 50 nM
"[2H]C1([2H])NC([2H])([2H])C([2H])([2H])N(c2cc(F)c3c(c2)OC[C@H](NC(=O)c2sc4nc(C)ccc4c2N)C3)C1([2H])[2H] [Example 10-4, (R)-3-amino-N-(5-fluoro-7-(piperazin-l-yl-2,2,3,3,5,5,6,6-d8)chroman-3-yl)-6-methylthieno[2,3-b]pyridine-2-carboxamide]",IC50,Example A-1(a),1 to 50 nM
"Cc1ccc2c(N)c(C(=O)N[C@@H]3COc4cc(N5CCNCC5)cc(F)c4C3)sc2n1 [Example 10-5, (S)-3-amino-N-(5-fluoro-7-(piperazin-1-yl)chroman-3-yl)-6-methylthieno[2,3-b]pyridine-2-carboxamide]",IC50,Example A-1(a),200 to 2000 nM
"Cc1ccc2c(N)c(C(=O)N[C@H]3COc4cc(N5CC6CNCC(C5)O6)cc(F)c4C3)sc2n1 [Example 10-6, N-((3R)-7-(9-oxa-3,7-diazabicyclo[3.3.1]nonan-3-yl)-5-fluorochroman-3-yl)-3-amino-6-methylthieno[2,3-b]pyridine-2-carboxamide]",IC50,Example A-1(a),1 to 50 nM
"Cc1cc(C)c2c(N)c(C(=O)N[C@H]3COc4cc(N5CC6CC(C5)N6)cc(F)c4C3)sc2n1 [Example 10-7, N-((3R)-7-(3,6-diazabicyclo[3.1.1]heptan-3-yl)-5-fluorochroman-3-yl)-3-amino-4,6-dimethylthieno[2,3-b]pyridine-2-carboxamide]",IC50,Example A-1(a),1 to 50 nM
"Cc1cnc2c(N)c(C(=O)N[C@H]3COc4cc(N5CC6CC(C5)N6)cc(F)c4C3)sc2n1 [Example 10-8, N-((3R)-7-(3,6-diazabicyclo[3.1.1]heptan-3-yl)-5-fluorochroman-3-yl)-7-amino-3-methylthieno[2,3-b]pyrazine-6-carboxamide]",IC50,Example A-1(a),1 to 50 nM
"Cc1cc(C)c2c(N)c(C(=O)N[C@H]3COc4cc(N5CCNCC5)cc(F)c4C3)sc2n1 [Example 10-9, (R)-3-amino-N-(5-fluoro-7-(piperazin-1-yl)chroman-3-yl)-4,6-dimethylthieno[2,3-b]pyridine-2-carboxamide]",IC50,Example A-1(a),1 to 50 nM
"Cc1cnc2c(N)c(C(=O)N[C@H]3COc4cc(N5CCNCC5)cc(F)c4C3)sc2n1 [Example 10-10, (R)-7-amino-N-(5-fluoro-7-(piperazin-1-yl)chroman-3-yl)-3-methylthieno[2,3-b]pyrazine-6-carboxamide]",IC50,Example A-1(a),1 to 50 nM
"COc1ccc2c(N)c(C(=O)N[C@H]3COc4cc(N5CCNCC5)cc(F)c4C3)sc2n1 [Example 10-11, (R)-3-amino-N-(5-fluoro-7-(piperazin-1-yl)chroman-3-yl)-6-methoxythieno[2,3-b]pyridine-2-carboxamide]",IC50,Example A-1(a),1 to 50 nM
"Cc1cnc2c(N)c(C(=O)N[C@H]3COc4cc(N5CC6CNCC(C5)O6)cc(F)c4C3)sc2n1 [Example 10-12, N-((3R)-7-(9-oxa-3,7-diazabicyclo[3.3.1]nonan-3-yl)-5-fluorochroman-3-yl)-7-amino-3-methylthieno[2,3-b]pyrazine-6-carboxamide]",IC50,Example A-1(a),1 to 50 nM
"Cc1cc(C)c2c(N)c(C(=O)N[C@H]3COc4cc(N5CC6CNCC(C5)O6)cc(F)c4C3)sc2n1 [Example 10-13, N-((3R)-7-(9-oxa-3,7-diazabicyclo[3.3.1]nonan-3-yl)-5-fluorochroman-3-yl)-3-amino-4,6-dimethylthieno[2,3-b]pyridine-2-carboxamide]",IC50,Example A-1(a),1 to 50 nM
"Cc1cc(C(F)(F)F)c2c(N)c(C(=O)N[C@H]3COc4cc(N5CCNCC5)cc(F)c4C3)sc2n1 [Example 10-14, (R)-3-amino-N-(5-fluoro-7-(piperazin-1-yl)chroman-3-yl)-6-methyl-4-(trifluoromethyl)thieno[2,3-b]pyridine-2-carboxamide]",IC50,Example A-1(a),1 to 50 nM
"Cc1ccc2c(N)c(C(=O)N(C)[C@H]3COc4cc(N5CCNCC5)cc(F)c4C3)sc2n1 [Example 10-15, 3-amino-N-[(3R)-5-fluoro-7-(piperazin-1-yl)-3,4-dihydro-2H-1-benzopyran-3-yl)-N,6-dimethylthieno[2,3-b]pyridine-2-carboxamide]",IC50,Example A-1(a),> 2000 nM
"Cc1ccc2c(N)c(C(=O)N[C@H]3CCc4cc(N5CC6CCC(C5)N6)ccc4C3)sc2n1 [Example 11-1, N-((2S)-6-(3,8-diazabicyclo[3.2.1]octan-3-yl)-1,2,3,4-tetrahydronaphthalen-2-yl)-3-amino-6-methylthieno[2,3-b]pyridine-2-carboxamide]",IC50,Example A-1(a),1 to 50 nM
"Cc1ccc2c(N)c(C(=O)N[C@@H]3CCc4cc(N5CC6CCC(C5)N6)ccc4C3)sc2n1 [Example 11-2, N-((2R)-6-(3,8-diazabicyclo[3.2.1]octan-3-yl)-1,2,3,4-tetrahydronaphthalen-2-yl)-3-amino-6-methylthieno[2,3-b]pyridine-2-carboxamide]",IC50,Example A-1(a),50 to 200 nM
"Cc1ccc2c(N)c(C(=O)N[C@H]3COc4cc(N5CC6CCC(C5)N6)c(F)c(F)c4C3)sc2n1 [Example 13-3, N-((3R)-7-(3,8-diazabicyclo[3.2.1]octan-3-yl)-5,6-difluorochroman-3-yl)-3-amino-6-methylthieno[2,3-b]pyridine-2-carboxamide]",IC50,format Example A-1(a),200 to 2000 nM
"Cc1ccc2c(N)c(C(=O)N[C@@H]3COc4cc(N5CC6CCC(C5)N6)c(F)c(F)c4C3)sc2n1 [Example 13-4, N-((3S)-7-(3,8-diazabicyclo[3.2.1]octan-3-yl)-5,6-difluorochroman-3-yl)-3-amino-6-methylthieno[2,3-b]pyridine-2-carboxamide]",IC50,format Example A-1(a),1 to 50 nM
"Cc1ccc2c(N)c(C(=O)N[C@H]3COc4cc(N5CCNCC5)c(Cl)cc4C3)sc2n1 [Example 13-5, (R)-3-amino-N-(6-chloro-7-(piperazin-1-yl)chroman-3-yl)-6-methylthieno[2,3-b]pyridine-2-carboxamide]",IC50,format Example A-1(a),> 2000 nM
"Cc1ccc2c(N)c(C(=O)N[C@@H]3COc4c(ccc(N5CCNCC5)c4Cl)C3)sc2n1 [Example 13-8, (S)-3-amino-N-(8-chloro-7-(piperazin-1-yl)chroman-3-yl)-6-methylthieno[2,3-b]pyridine-2-carboxamide]",IC50,format Example A-1(a),200 to 2000 nM
"Cc1ccc2c(N)c(C(=O)N[C@H]3COc4c(ccc(N5CCNCC5)c4Cl)C3)sc2n1 [Example 13_7, (R)-3-amino-N-(8-chloro-7-(piperazin-1-yl)chroman-3-yl)-6-methylthieno[2,3-b]pyridine-2-carboxamide]",IC50,format Example A-1(a),1 to 50 nM
